Test results published in patent US11571011B2, “Compositions of steviol multiglycosylated derivatives and stevia components” (SWEET GREEN FIELDS USA LLC, priority 2015, dated 2023).
Where “and” joins values, the source holds several entries; their conditions need not be identical. Equal values may be shown once.

What was measured:
[1] = Solubility of spray-dried GSG-RA20 / steviol glycoside 1:1 compositions (Example 56); type: physicochemical
Procedure: GSG-RA20 was mixed with RA, RB, RD or stevioside as the ratio of 1:1 by weight so as to obtain a mixture, a certain amount of solvent, such as water, ethanol/water mixture, was added into the obtained mixture, heated to a certain temperature until the mixture was completely dissolved, and the temperature was kept for an hour. The solution was treated by spray drying to obtain the composition comprising GSG and SG.

[2] = background; cited from earlier work
[3] = Evaluation of taste profile: sugar like, bitterness, aftertaste, lingering scored 0-5 by sensory panel; type: in vivo, human
Procedure: 1. The components where mixed and then dissolved in aqueous citric acid (pH 3.8) with ultrasound at room temperature and left to sit for 30 min.
For evaluation of taste profile, the samples were tested and were scored 0-5 according to the increasing sugar like, bitterness, aftertaste and lingering taste profiles. The results were recorded as the mean value of the results provided by the panel.

[4] = Calculated versus measured sweetness of GSG / steviol glycoside compositions from sweetness curves (synergistic effect); design: species or system human; settings: for Calculated SE of RA97: citric acid pH 3.8
Procedure: The sweetness of GSG-RA50 and RA97 compositions at varying concentrations was measured according to the sweetness curve (FIG. 9), and the combined sweetness of each composition of GSG-RA50 and RA97 was calculated and compared with the measured value in Table 19.
Calculated SE (ppm sucrose) of GSG-RA50 per ppm=calculated SE of GSG-RA50/concentration of GSG-RA50. Measured sweetness (ppm sucrose) of GSG-RA50 per ppm=(Measured SE−Calculated SE of RA97)/concentration of GSG-RA50.
The sweetness of GSG-RA95 and rebaudioside A, 97% purity (RA) RA97 compositions at varying concentrations was measured according to the sweetness curve (FIG. 13), and the combined sweetness of each composition of GSG-RA95 and RA97 was calculated and compared with the measured value in Table 23.
Calculated sweetness (ppm sugar) of GSG-RA50 per ppm=calculated SE of GSG-RA50/concentration of GSG-RA50. Measured sweetness (ppm sugar) of GSG-RA50 per ppm=(Measured SE-calculated SE of RA97)/concentration of GSG-RA50.
Calculated sweetness (ppm sugar) of GSG-RA20 plus RA97 per ppm=calculated SE of GSG-RA20 plus RA97/concentration of GSG-RA20 plus RA97
Measured sweetness (ppm sugar) of GSG-RA20 plus RA97 per ppm=(Measured SE of GSG-RA20 plus RA97−sugar concentration)/concentration of GSG-RA20 plus RA97

[5] = 0.01 g of each component in 10 ml water
[6] = RA97 400 ppm (control), citric acid pH 3.8
[7] = total solid content 350 ppm, panel score

Rebaudioside B
Stable time [1, 5]: insoluble

C=C1C[C@@]23CC[C@H]4[C@@](C)(CCC[C@@]4(C)C(=O)O[C@@H]4O[C@H](CO)[C@@H](O)[C@H](O)[C@H]4O)[C@@H]2CC[C@]1(O[C@@H]1O[C@H](CO)[C@@H](O)[C@H](O)[C@H]1O[C@@H]1O[C@H](CO)[C@@H](O)[C@H](O)[C@H]1O)C3 [Stevioside]
times sweeter than sugar [2]: approximately 300 times

C=C1C[C@@]23CC[C@H]4[C@@](C)(CCC[C@@]4(C)C(=O)O[C@@H]4O[C@H](CO)[C@@H](O)[C@H](O)[C@H]4O[C@@H]4O[C@H](CO)[C@@H](O)[C@H](O)[C@H]4O)[C@@H]2CC[C@]1(O[C@@H]1O[C@H](CO)[C@@H](O)[C@H](O[C@@H]2O[C@H](CO)[C@@H](O)[C@H](O)[C@H]2O)[C@H]1O[C@@H]1O[C@H](CO)[C@@H](O)[C@H](O)[C@H]1O)C3 [Rebaudioside D]
Stable time [1, 5]: insoluble

C=C1C[C@@]23CC[C@H]4[C@@](C)(CCC[C@@]4(C)C(=O)O[C@@H]4O[C@H](CO)[C@@H](O)[C@H](O)[C@H]4O)[C@@H]2CC[C@]1(O[C@@H]1O[C@H](CO)[C@@H](O)[C@H](O[C@@H]2O[C@H](CO)[C@@H](O)[C@H](O)[C@H]2O)[C@H]1O[C@@H]1O[C@H](CO)[C@@H](O)[C@H](O)[C@H]1O)C3 [RA97, Rebaudioside A]
Aftertaste [3, 6]: 3 | Bitterness [3, 6]: 2 | Lingering [3, 6]: 4 | Sugar like [3, 6]: 3 | Aftertaste [3, 7]: 3 | Bitterness [3, 7]: 2 | Lingering [3, 7]: 4 | Sugar like [3, 7]: 3 | Calc. SE of RA97 ([4]; RA97 50 ppm, read from sweetness curve): 1.5% | Calc. SE of RA97 ([4]; RA97 50 ppm, with GSG-RA90, 350 ppm total solids): 1.5% | Calc. SE of RA97 ([4]; RA97 100 ppm, read from sweetness curve): 3% and 3.2% | Calculated SE of RA97 ([4]; RA97 100 ppm): 3% | Calc. SE of RA97 ([4]; RA97 100 ppm, with GSG-RA90, 350 ppm total solids): 3.2% | Calc. SE of RA97 ([4]; RA97 100 ppm, with GSG-RA95, 200 ppm total solids): 3% | Calc. SE of RA97 ([4]; RA97 150 ppm, read from sweetness curve): 4.2% and 4% | Calculated SE of RA97 ([4]; RA97 150 ppm): 4.20% | Calc. SE of RA97 ([4]; RA97 150 ppm, with GSG-RA90, 350 ppm total solids): 4% | Calc. SE of RA97 ([4]; RA97 150 ppm, with GSG-RA95, 200 ppm total solids): 4.2% | Calc. SE of RA97 ([4]; RA97 200 ppm, read from sweetness curve): 5% | Calculated SE of RA97 ([4]; RA97 200 ppm): 5% | Calc. SE of RA97 ([4]; RA97 200 ppm, with GSG-RA90, 350 ppm total solids): 5% | Calc. SE of RA97 ([4]; RA97 250 ppm, read from sweetness curve): 6% | Calculated SE of RA97 ([4]; RA97 250 ppm): 6% | Calc. SE of RA97 ([4]; RA97 250 ppm, with GSG-RA90, 350 ppm total solids): 6% | Calc. SE of RA97 ([4]; RA97 300 ppm, read from sweetness curve): 6.9% and 7% | Calculated SE of RA97 ([4]; RA97 300 ppm): 6.90% | Calc. SE of RA97 ([4]; RA97 300 ppm, with GSG-RA90, 350 ppm total solids): 6.9% | Calc. SE of RA97 ([4]; RA97 300 ppm, with GSG-RA95, 500 ppm total solids): 7% | Calc. SE of RA97 ([4]; RA97 400 ppm, read from sweetness curve): 8.25% | Calc. SE of RA97 ([4]; RA97 400 ppm, with GSG-RA95, 500 ppm total solids): 8.25% | Measured SE of the composition ([4]; RA97 alone, 350 ppm, no GSG): 8% | Calculated SE of the single component (steviol glycoside composition or GSG) alone ([4]; component at 150 ppm): 4.00% | Calculated SE of the single component (steviol glycoside composition or GSG) alone ([4]; component at 200 ppm): 5.00% | Calculated SE of the single component (steviol glycoside composition or GSG) alone ([4]; component at 250 ppm): 6.00%

C=C1C[C@@]23CC[C@H]4[C@@](C)(CCC[C@@]4(C)C(=O)O[C@@H]4O[C@H](CO)[C@@H](O)[C@H](O)[C@H]4O)[C@@H]2CC[C@]1(O[C@@H]1O[C@H](CO)[C@@H](O)[C@H](O[C@@H]2O[C@H](CO)[C@@H](O)[C@H](O)[C@H]2O)[C@H]1O[C@@H]1O[C@H](CO)[C@@H](O)[C@H](O)[C@H]1O)C3 [Rebaudioside A]
Stable time ([1]; 1 g in 10 ml water): 2 h
